In US3984562A, “Substituted benzodiazepines and method of use” (American Cyanamid Company, priority 1975, dated 1976):
Where two headings read alike, the source gives them in different places.

Assay: protection from convulsions resulting from the administration of pentylenetetrazole (anti-anxiety test, rats, oral)
Type: in vivo
Settings: Rattus norvegicus, read-out: Median Effective Oral Dose ED50
Protocol: The anti-anxiety properties of these compounds have been established in a test which indicates anxiolytic activity by a measure of protection from convulsions resulting from the administration of pentylenetetrazole. Graded dose levels of the compounds are administered orally, in a 2% starch vehicle, to groups of at least 5 rats. At the estimated time of peak effect, the rats are treated intravenously with pentylenetetrazole at a dose of 21 to 23 mg./kg. of body weight. This dose is estimated to cause clonic seizures in 99% of unprotected rats. The effective dose of the test compound for protection of 50% of the animals (ED50) is calculated by the method of D. H. Finney in Statistical Methods in Biological Assay, Second Edition, Hafner Publishing Co., New York, 1964, pp. 456-457. The results of this test on representative compounds of the present invention are given in the following table in comparison with meprobromate which is tested in the same manner. It has been reported [R. T. Hill and D. H. Tedeschi, "Animal Testing and Screening Procedures in Evaluating Psychotropic Drugs" in An Introduction to Psychopharmacology, Eds. R. R. Rech and K. E. Moore, Raven Press, New York, pp. 237-288 (1971)] that there is a high degree of correlation between antagonism of pentylenetetrazole seizures in rats and anti-anxiety effects in higher warm-blooded animals.

[1] = oral, 2% starch vehicle, rats (at least 5 per group), pentylenetetrazole 21 to 23 mg./kg. intravenously at estimated time of peak effect, protection of 50% of animals

Row | SMILES | ED50 [1] | ED50 (po)
1 | O=C(CCN1CCCCC1)N1CC2CCCN2Cc2ccccc21 (single isomer, unassigned; (-)) [(-)-2,3,5,10,11,11a-Hexahydro-10-(3-piperidinopropionyl)-1H-pyrrolo[2,1-c][1,4]benzodiazepine] | 16 mg/kg | –
2 | O=C(CCN1CCCC1)N1CC2CCCN2Cc2ccccc21 (single isomer, unassigned; (-)) [(-)-2,3,5,10,11,11a-Hexahydro-10-[3-(1-pyrrolidinyl)-propionyl]-1H-pyrrolo[2,1-c] [1,4]benzodiazepine] | 57 mg/kg | –
3 | O=C(CCN1CCCC1)N1CC2CCCN2Cc2cc(Cl)ccc21 (single isomer, unassigned; (-)) [(-)-7-Chloro-2,3,5,10,11,11a-hexahydro-10-[3-(1-pyrrolidinyl)-propionyl]-1H-pyrrolo[2,1-c][1,4]benzodiazepine] | 7 mg/kg | –
4 | CCCC(C)(COC(N)=O)COC(N)=O [meprobromate, reference compound] | – | 22 mg/kg
